# Measurements reported in patent publication US10047068B2, “Optical resolution method of lenalidomide” (Shiseido Company, Ltd, priority 2014, dated 2018).
# Tests used:
# [1] = Na-phosphate buffer pH 7.4, 37° C., average of 3 tests ± SD
# [2] = Racemization half-life in human serum (37° C.); conditions: for racemization half-life in serum, times longer than the corresponding TD enantiomer: human serum, 37° C.
# Excerpt: The analysis method of the invention is shown as scheme (b). The acid used to suspend the reaction while simultaneously precipitating and removing the protein was HClO4.
# [3] = Dependence of racemization half-life on pH in aqueous buffers at room temperature; format: physicochemical
# Protocol: In order to elucidate the racemization half-life of lenalidomide and its pH dependence, an experiment was conducted with the following scheme and HPLC conditions.
# The enantiomeric excess rate (EE, [(S−R)/(S+R)×100], %) at each point is plotted in FIG. 7, and the log10 (EE) vs. time plot is shown in FIG. 8.
# This linearity was used to calculate the time for EE=50 based on a straight line approximation (y=ax+b), to determine the racemization half-life. The stability of the pure enantiomer is very highly dependent on pH, the half-life being 10 times longer for every pH reduction of 1, and estimation of the half-life was no longer possible at pH 4. At pH 9, on the other hand, sudden racemization and decomposition were observed.
# [4] = NPL 11; cited from earlier work
# [5] = Stability of lenalidomide in different solvents; format: physicochemical; conditions: 0.5 mg/mL racemic mixture, room temperature or 50° C., 24 hours
compound,measurement,setting,value
"Nc1cccc2c1CN(C1CCC(=O)NC1=O)C2=O (single isomer, unassigned) [(S*)-LL]",racemization half-life in aqueous buffer,[1],4.53 ± 0.0217 h
same,"racemization half-life in serum, times longer than the corresponding TD enantiomer",[2],6 times
same,racemization half-life in human serum,[2],2.18 ± 0.0817 h
same,racemization on incubation in aqueous buffer,"[3]; pH 6, room temperature",small amount of (R*)-LL was produced
same,racemization on incubation in aqueous buffer,"[3]; pH 7 and higher, room temperature",racemization was significantly accelerated
"Nc1cccc2c1CN(C1CCC(=O)NC1=O)C2=O (single isomer, unassigned) [(R*)-LL]",racemization half-life in aqueous buffer,[1],4.45 ± 0.0183 h
same,"racemization half-life in serum, times longer than the corresponding TD enantiomer",[2],3 times
same,racemization half-life in human serum,[2],1.82 ± 0.0333 h
O=C1CCC(N2C(=O)c3ccccc3C2=O)C(=O)N1 (racemic) [thalidomide],excretion half-life,[4],8.7 h
"Nc1cccc2c1CN(C1CCC(=O)NC1=O)C2=O (racemic) [lenalidomide, Lenalidomide]",stability in solvent (enantiomer peak areas before and after incubation),[5]; acetonitrile,no decomposition was observed
same,stability in solvent (enantiomer peak areas before and after incubation),[5]; ethanol,highly unstable
same,stability in solvent (enantiomer peak areas before and after incubation),[5]; ethyl acetate,no decomposition was observed
same,stability in solvent (enantiomer peak areas before and after incubation),[5]; isopropanol,stable
same,stability in solvent (enantiomer peak areas before and after incubation),[5]; methanol,highly unstable
same,racemization and decomposition in aqueous buffer (peak areas),"[3]; pH 9 and 8, room temperature",racemization and decomposition of LL takes place
